pIC50: −log10 of the molar value.
System: 313798-341-R-J2-PDC spheroids, viability
Experiment: Anticancer human tumor 313798-341-R-J2-PDC patient-derived cervical squamous cell carcinoma cell line growth inhibition [PI3K]
Settings: spheroids with HUVEC and MSC; for pIC50: curve of first compound; for viability, T/C: stronger effect = lower value
Description: Combinatorial screen of targeted agents with the PI3K inhibitors inavolisib, alpelisib, duvelisib, and copanlisib in multi-cell type tumor spheroids
A high-throughput screen of multi-cell type tumor spheroids was designed to identify active combinations of targeted small molecules and PI3K pathway inhibitors. Complex spheroids include a stromal component modeled by human endothelial cells (HUVEC) and fibroblasts modeled by human mesenchymal stem cells (MSCs). The concentration ranges selected for each drug and investigational agent were based upon clinically achievable concentrations if the clinical Cmax of the agent was known.
Compounds. The drugs and investigational agents: inavolisib (NSC800729), alpelisib (NSC765974), duvelisib (NSC772469), copanlisib (NSC816437), ipatasertib (NSC767898), afuresertib (NSC778305), talazoparib (NSC767125), sapanisertib (NSC764658), selumetinib (NSC741078), tovorafenib (DAY101, NSC766906), vemurafenib (NSC761431), ravoxertinib (NSC781343), sotorasib (NSC818433), MRTX1133 (NSC 836407), abemaciclib (NSC 768073), palbociclib (NSC758247), venetoclax (NSC 766270), SY5609 (NSC837396), enzalutamide (NSC755605), and darolutamide (NSC825331), were obtained from the National Cancer Institute (NCI) Developmental Therapeutics Program Chemical Repository. The FDA-approved anticancer drug set is available from the NCI Developmental Therapeutics Program. […] The stock solutions were prepared in dimethyl sulfoxide (DMSO, Sigma-Aldrich, St. Louis, MO, cat. D2650) at 800-fold the tested concentration and stored at -70 degrees C prior to their use. All drugs and investigational agents were tested over a range starting from a high concentration at or near the clinical Cmax and decreasing in half-log increments. If the clinical Cmax for an agent had not been determined, the highest concentration tested was 10 microM.
Cell Culture. All cells were maintained in an incubator at 37 degrees C and 5% CO2 with 95% humidity. The PDC lines were cultured according to standard operating procedures established by the NCI PDMR (https://pdmr.cancer.gov/sops/default.htm). All PDCs were thawed and cultured in Matrigel-coated flasks prepared with a working solution of 1X Ham's F-12 nutrient mix, without supplementation (Invitrogen, Waltham, MA, cat. 11765054), 100 U/mL penicillin-streptomycin (Invitrogen, cat. 15140122), and 2.5% Matrigel (Corning Inc., Corning, NY, cat. 354248) for the first three passages. The 354836-022-R-J1-PDC, 475296-252-R-J1-PDC, and 997726-040-R-J2-PDC lines were cultured in 6A media, which includes advanced DMEM/F-12 (Thermo Fisher Scientific, cat. 12634028), 10 mM HEPES (Thermo Fisher Scientific, cat. 15630080), 1X GlutaMAX supplement (Thermo Fisher Scientific, cat. 35050061), 0.1 mg/mL primocin (InvivoGen, San Diego, CA, cat. ant-pm-2), 10% defined fetal bovine serum, heat inactivated (HyClone Laboratories Inc., Logan, UT, cat. SH30070.03HI), 50% L-WRN conditioned media (ATCC, cat. CRL-3276), 1.25 mM N-Acetyl-L-cysteine (Sigma-Aldrich, cat. A9165), 10 mM nicotinamide (Sigma-Aldrich, cat. N0636), 1X B-27 supplement (Thermo Fisher Scientific, cat. 17504044), 1X N-2 supplement (Thermo Fisher Scientific, cat. 17502048), and 10 microM Y-27632 dihydrochloride (Tocris Bioscience, Bristol, United Kingdom, cat. 1254). The 624824-186-R-J2-PDC line was cultured in 6C/Colon 1B media, which includes all 6A media components plus 50 ng/mL human EGF recombinant protein (Thermo Fisher Scientific, cat. PHG0311). […]
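Further: spheroids exposed to compounds for seven days.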
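Wherever viability, T/C is given: 100% = DMSO vehicle control viability.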

Work on `C[C@@H](NC(=O)c1ncnc(N)c1Cl)c1ncc(C(=O)Nc2cc(C(F)(F)F)c(Cl)cn2)s1` + CC(Nc1ccc2c(c1)OCCn1cc(N3C(=O)OCC3C(F)F)nc1-2)C(N)=O yielded a pIC50 (second compound 0.00316 µM) of 5.23, a pIC50 (second compound 0.01 µM) of 5.22 and a pIC50 (second compound 0.0316 µM) of 5.23. The pIC50 (second compound 0.1 µM) was 5.33, the pIC50 (second compound 0.316 µM) was 5.72 and the pIC50 (second compound 1 µM) was greater than 7.50. The viability, T/C (second compound 0.00316 µM, first compound 0.0316 µM) was 101%, the viability, T/C (second compound 0.00316 µM, first compound 0.1 µM) was 106% and the viability, T/C (second compound 0.00316 µM, first compound 0.316 µM) was 103%. For the same compound, the viability, T/C (second compound 0.00316 µM, first compound 1 µM) was 95.4%, the viability, T/C (second compound 0.00316 µM, first compound 3.16 µM) was 110% and the viability, T/C (second compound 0.00316 µM, first compound 10 µM) was 6.06%. For the same compound, the viability, T/C (second compound 0.01 µM, first compound 0.0316 µM) was 110%, the viability, T/C (second compound 0.01 µM, first compound 0.1 µM) was 105% and the viability, T/C (second compound 0.01 µM, first compound 0.316 µM) was 95.1%. It also gave a viability, T/C (second compound 0.01 µM, first compound 1 µM) of 105%, a viability, T/C (second compound 0.01 µM, first compound 3.16 µM) of 110% and a viability, T/C (second compound 0.01 µM, first compound 10 µM) of 5.51%. It also gave a viability, T/C (second compound 0.0316 µM, first compound 0.0316 µM) of 99.9%, a viability, T/C (second compound 0.0316 µM, first compound 0.1 µM) of 103% and a viability, T/C (second compound 0.0316 µM, first compound 0.316 µM) of 110%. It also gave a viability, T/C (second compound 0.0316 µM, first compound 1 µM) of 114%, a viability, T/C (second compound 0.0316 µM, first compound 3.16 µM) of 99.6% and a viability, T/C (second compound 0.0316 µM, first compound 10 µM) of 8.08%. It also gave a viability, T/C (second compound 0.1 µM, first compound 0.0316 µM) of 81.9%, a viability, T/C (second compound 0.1 µM, first compound 0.1 µM) of 78% and a viability, T/C (second compound 0.1 µM, first compound 0.316 µM) of 91.8%. For the same compound, the viability, T/C (second compound 0.1 µM, first compound 1 µM) was 92.7%, the viability, T/C (second compound 0.1 µM, first compound 3.16 µM) was 73.3% and the viability, T/C (second compound 0.1 µM, first compound 10 µM) was 6.24%. It also gave a viability, T/C (second compound 0.316 µM, first compound 0.0316 µM) of 55.2%, a viability, T/C (second compound 0.316 µM, first compound 0.1 µM) of 54.6% and a viability, T/C (second compound 0.316 µM, first compound 0.316 µM) of 61.6%. The viability, T/C (second compound 0.316 µM, first compound 1 µM) was 66.5%, the viability, T/C (second compound 0.316 µM, first compound 3.16 µM) was 42.6% and the viability, T/C (second compound 0.316 µM, first compound 10 µM) was 9.28%. It also gave a viability, T/C (second compound 1 µM, first compound 0.0316 µM) of 51.8%, a viability, T/C (second compound 1 µM, first compound 0.1 µM) of 41.5% and a viability, T/C (second compound 1 µM, first compound 0.316 µM) of 53.4%. For the same compound, the viability, T/C (second compound 1 µM, first compound 1 µM) was 45.4%, the viability, T/C (second compound 1 µM, first compound 3.16 µM) was 29.3% and the viability, T/C (second compound 1 µM, first compound 10 µM) was 14.3%.

Reference: PubChem BioAssay AID1963982 (Molecular Pharmacology Branch, DTP, NCI, 2024)
